Measurements reported in US20120128630A1, “1-(6 MEMBERS AZO-HETEROCYCLIC)-PYRROLIN-2-ONE COMPOUNDS AS INHIBITORS OF HEPATITIS C NS5B POLYMERASE, THE PHARAMACEUTICAL COMPOSITION THEREOF AND THEIR THERAPEUTIC USE” (priority 2009, published 2012).
Where two headings read alike, the source gives them in different places.

Tests used:
HCV replicon Luc Neo ET = assay: Luc Neo ET Replicon assay; format: cell-based, Hepatitis C virus; conditions: Table 3, titled RdRp enzyme assay results, EC50_Replicon LucneoET, 72 hours with compound, luciferase
Outline: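 Huh-7-derived Luc Neo ET bicistronic HCV replicon cells (adaptive mutations E1202G, T1280I, K1846T) treated 24 h after seeding with compounds for 72 h, 1% DMSO final, 37 °C. Firefly luciferase luminescence read after lysis; % inhibition from background-corrected RLU relative to untreated signal.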

HCV NS5B genotype 1b = molecular target: T1, HCV NS5B genotype 1b (Hepatitis C virus genotype 1b, UniProt Q9WMX2); assay: 3D-SCREEN assay (NS5B 3D-Screen platform, luciferase reporter gene); format: cell-based
T1 construct: The protein was expressed with a 21 amino acid C-terminal deletion to remove transmembrane domain; expressed in transfected cells; host or cells: Huh-7
Outline: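 Huh-7 cells transiently co-transfected with NS5BΔ21/Gal4-DBD, 3D-Sensor peptide I4/VP16 and firefly luciferase reporter. Compounds added 2 h after seeding, 1% DMSO final, 24 h incubation. Luciferase luminescence read; % inhibition relative to no-compound signal.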

[1] = molecular target: T2, HCV NS5B with a deletion of the 21 C-terminal amino acids (Hepatitis C virus genotype 1b, UniProt Q9WMX2); assay: HCV NS5B RdRp enzyme assay; format: biochemical
T2 construct: purified HCV NS5B with a deletion of the 21 C-terminal amino acids
Method: The assay was performed in a total volume of 20 μl containing 20 mM Tris pH 7.5, 1 mM DTT, 17 U RNasin, 50 mM NaCl, 10% DMSO, 5 mM MgCl2, 0.5 mM each of the 3 NTPs (ATP, CTP, GTP), 86 nM RNA template (341 nt from the 3′ end of HCV minus strand RNA), 50 nM of purified HCV NS5B with a deletion of the 21 C-terminal amino acids and 2 μCi [^3H]UTP (46 Ci.mmol^−1). The reaction mixture was incubated for 2 h at 25-30° C. and the radiolabeled products were precipitated by the addition of 10% TCA. The radioactivity incorporated was quantified by counting in a Wallac scintillation counter. Increasing concentrations of tested compounds were added to the complete RdRp reaction mixture. After a two hour incubation period at 25-30° C., the amount of labeled product was determined as above. Two types of control reactions were done: a negative control corresponding to the complete mixture without enzyme and a positive control with enzyme but without compounds. In each experiment, test and control samples are in duplicate.
The level of activity with each compound concentration was expressed with the formulae: […]
The IC50 value was calculated as the compound concentration reducing polymerase activity by 50%.

[2] = EC50_3DS_NS5B, Table 2, titled Replicon assay results

Row | SMILES | melting point [°C] | EC50 (HCV replicon Luc Neo ET; Hepatitis C virus, 72 h) [nM] | EC50 (HCV NS5B genotype 1b; EC50_3DS_NS5B, Table 1, 3D-SCREEN assay results, Huh-7 cells, 24 hours with compound, firefly luciferase reporter) [nM] | inhibition at 10 µM [1] [%] | EC50 (HCV NS5B genotype 1b; [2]) [nM] | EC50 (HCV replicon Luc Neo ET) [nM] | EC50 (HCV NS5B genotype 1b; read-out: EC50_3DS_NS5B, Table 2, titled Replicon assay results) [nM]
1 | Cc1ccc(N2C(=O)C(O)=C(C(=O)c3ccc(C(C)C)cc3)C2c2ccc(C(F)(F)F)cc2)nn1 (stereo not shown) [Example 63, 3-hydroxy-4-(4-isopropyl-benzoyl)-1-(6-methyl-pyridazin-3-yl)-5-(4-trifluoromethyl-phenyl)-1,5-dihydro-pyrrol-2-one] | 268 to 270 | 100 | 60 | 50 | – | – | –
2 | Cc1cnc(N2C(=O)C(O)=C(C(=O)c3ccc(C(C)C)cc3)C2c2ccc(OC(F)(F)F)cc2)cn1 (stereo not shown) [Example 128, 3-hydroxy-4-(4-isopropyl-benzoyl)-1-(5-methyl-pyrazin-2-yl)-5-(4-trifluoromethoxy-phenyl)-1,5-dihydro-pyrrol-2-one] | 266 to 268 | < 10000 | – | – | < 1000 | – | –
3 | COc1ccc(N2C(=O)C(O)=C(C(=O)c3ccc(C(C)C)cc3)C2c2ccc(OC(F)(F)F)cc2)nn1 (stereo not shown) [Example 129, 3-hydroxy-4-(4-isopropyl-benzoyl)-1-(6-methoxy-pyridazin-3-yl)-5-(4-trifluoromethoxy-phenyl)-1,5-dihydro-pyrrol-2-one] | 271 | < 10000 | – | – | < 1000 | – | –
4 | CC(C)c1ccc(C(=O)C2=C(O)C(=O)N(c3cccn(C)c3=O)C2c2ccc(OC(F)(F)F)cc2)cc1 (stereo not shown) [Example 130, 3-[3-hydroxy-4-(4-isopropyl-benzoyl)-2-oxo-5-(4-trifluoromethoxy-phenyl)-2,5-dihydro-pyrrol-1-yl]-1-methyl-1H-pyridin-2-one] | 207 | < 10000 | – | – | < 10000 | – | –
5 | Cc1ccc(N2C(=O)C(O)=C(C(=O)c3ccc(CC(C)C)cc3)C2c2ccc(OC(F)(F)F)cc2)nn1 (stereo not shown) [Example 131, 3-hydroxy-4-(4-isobutyl-benzoyl)-1-(6-methyl-pyridazin-3-yl)-5-(4-trifluoromethoxy-phenyl)-1,5-dihydro-pyrrol-2-one] | 260 | < 10000 | – | – | < 1000 | – | –
6 | Cc1ccc(N2C(=O)C(Cl)=C(C(=O)c3ccc(C(C)C)cc3)C2c2ccc(OC(F)(F)F)cc2)nn1 (stereo not shown) [Example 138, 3-chloro-4-(4-isopropyl-benzoyl)-1-(6-methyl-pyridazin-3-yl)-5-(4-trifluoromethoxy-phenyl)-1,5-dihydro-pyrrol-2-one] | 293 | < 10000 | – | – | < 10000 | – | –
7 | C=C(C)c1ccc(C(=O)C2=C(O)C(=O)N(c3ccc(C)nn3)C2c2ccc(OC(F)(F)F)cc2)cc1 (stereo not shown) [Example 142, 3-hydroxy-4-(4-isopropenyl-benzoyl)-1-(6-methyl-pyridazin-3-yl)-5-(4-trifluoromethoxy-phenyl)-1,5-dihydro-pyrrol-2-one] | 253 | < 10000 | – | – | < 1000 | – | –
8 | Cc1ccc(N2C(=O)C(O)=C(C(=O)c3ccc(C(C)C)cc3)C2c2ccc(OC3CCOCC3)cc2)nn1 (stereo not shown) [Example 143, 3-hydroxy-4-(4-isopropyl-benzoyl)-1-(6-methyl-pyridazin-3-yl)-5-[4-(tetrahydro-pyran-4-yloxy)-phenyl]-1,5-dihydro-pyrrol-2-one] | 275 | < 10000 | – | – | < 10000 | – | –
9 | CC(C)c1ccc(C(=O)C2=C(O)C(=O)N(c3ccc(O)nn3)C2c2ccc(OC(F)(F)F)cc2)cc1 (stereo not shown) [Example 159, 3-hydroxy-1-(6-hydroxy-pyridazin-3-yl)-4-(4-isopropyl-benzoyl)-5-(4-trifluoromethoxy-phenyl)-1,5-dihydro-pyrrol-2-one] | 255 | < 10000 | – | – | < 1000 | – | –
10 | C=C(C)c1ccc(C2C(C(=O)c3ccc(C(C)C)cc3)=C(O)C(=O)N2c2ccc(C)nn2)cc1 (stereo not shown) [Example 160, 3-hydroxy-5-(4-isopropenyl-phenyl)-4-(4-isopropyl-benzoyl)-1-(6-methyl-pyridazin-3-yl)-1,5-dihydro-pyrrol-2-one] | 274 | < 10000 | – | – | < 1000 | – | –
11 | CC(C)c1ccc(C(=O)C2=C(O)C(=O)N(c3ccc(OCc4ccccc4)nn3)C2c2ccc(OC(F)(F)F)cc2)cc1 (stereo not shown) [Example 161, 1-(6-benzyloxy-pyridazin-3-yl)-3-hydroxy-4-(4-isopropyl-benzoyl)-5-(4-trifluoromethoxy-phenyl)-1,5-dihydro-pyrrol-2-one] | 269 | < 10000 | – | – | < 1000 | – | –
12 | Cc1ccc(N2C(=O)C(O)=C(C(=O)c3ccc(C(C)C)cc3)C2c2ccc(OC(C)C)nc2)nn1 (stereo not shown) [Example 165, 3-hydroxy-5-(6-isopropoxy-pyridin-3-yl)-4-(4-isopropyl-benzoyl)-1-(6-methyl-pyridazin-3-yl)-1,5-dihydro-pyrrol-2-one] | 282 | < 1000 | – | – | < 1000 | – | –
13 | Cc1ccc(N2C(=O)C(O)=C(C(=O)c3ccc(C(C)C)cc3)C2c2ccc(OC(C)C)nc2)nn1.Cl (stereo not shown) [Example 167, 3-hydroxy-5-(6-isopropoxy-pyridin-3-yl)-4-(4-isopropyl-benzoyl)-1-(6-methyl-pyridazin-3-yl)-1,5-dihydro-pyrrol-2-one; hydrochloride] | 280 | – | – | – | – | < 1000 | < 1000
14 | Cc1ccc(N2C(=O)C(O)=C(C(=O)c3ccc(C(C)C)cc3)[C@H]2c2ccc(OC(F)(F)F)cc2)nn1 [Example 188, 3-hydroxy-4-(4-isopropyl-benzoyl)-1-(6-methyl-pyridazin-3-yl)-5(R)-(4-trifluoromethoxy-phenyl)-1,5-dihydro-pyrrol-2-one] | 217 | < 100 | – | – | < 100 | – | –
15 | Cc1ccc(N2C(=O)C(O)=C(C(=O)c3ccc(C(C)C)cc3)[C@@H]2c2ccc(OC(F)(F)F)cc2)nn1 [Example 189, 3-hydroxy-4-(4-isopropyl-benzoyl)-1-(6-methyl-pyridazin-3-yl)-5(S)-(4-trifluoromethoxy-phenyl)-1,5-dihydro-pyrrol-2-one] | 221 | < 10000 | – | – | < 10000 | – | –
16 | Cc1ccc(N2C(=O)C(O)=C(C(=O)c3ccc(C(C)C)cc3)[C@H]2c2ccc(C(F)(F)F)cc2)nn1 [Example 191, 3-hydroxy-4-(4-isopropyl-benzoyl)-1-(6-methyl-pyridazin-3-yl)-5(R)-(4-trifluoromethyl-phenyl)-1,5-dihydro-pyrrol-2-one] | 251 | < 100 | – | – | < 100 | – | –
17 | Cc1ccc(C(=O)C2=C(O)C(=O)N(c3ccc(C)nn3)[C@@H]2c2ccc(OC(F)(F)F)cc2)cc1 [Example 199, 3-hydroxy-4-(4-methyl-benzoyl)-1-(6-methyl-pyridazin-3-yl)-5(R)-(4-trifluoromethoxy-phenyl)-1,5-dihydro-pyrrol-2-one] | 215 | < 1000 | – | – | < 1000 | – | –
